In general, IC50 refers to the midpoint of a concentration-inhibition curve. A high value points to weaker potency.

We go through 39 compounds from patent publication US20230357271A1, “MACROCYCLIC COMPOUND” (Asahi Kasei Pharma Corporation, priority 2020, published 2023).

The target in one assay is human IRAK-4 (Homo sapiens (Human), UniProt Q9NWZ3). The assay is described as follows: Measurement of human IRAK-4 inhibitory activity (TR-FRET). The note with it: 1 nM IRAK-4, 0.5 µM peptide substrate, 10 µM ATP, 23° C., 30 minutes. It counts as biochemical. Here is the method: For the measurement of the activity of the human IRAK-4 (Invitrogen, Cat. PV3362), phosphorylation of the IRAK-4 peptide substrate (biotin-KKKKRFSFKKSFKC) by the enzyme in the presence of 10 µM ATP (Sigma-Aldrich, Cat. A7699) was measured by the TR-FRET method. The enzymatic reaction was performed in a reaction buffer containing 50 mM HEPES (pH 7.2), 1 mM DTT, 0.1 mM Na3VO4, 5 mM MgCl2, 1 mM MnCl2, and 0.1% bovine serum albumin. For the measurement of the IRAK-4 inhibitory activity, a test compound was added to the reaction buffer containing 1 nM IRAK-4, 0.5 µM peptide substrate, and 10 µM ATP, and the mixture was incubated at 23° C. for 30 minutes. Then, a detection solution containing an antibody labeled with europium cryptate (0.3 µg/mL, the antibody was prepared by using the IRAK-4 peptide substrate as the antigen), streptavidin-XL665 (2 µg/mL, CisBio, Cat. 610SAXLB), 50 mM HEPES (pH 7.2), 0.1% BSA, 120 mM KF, and 66.7 mM EDTA (all the concentrations of the reagents are final concentrations) was added to terminate the reaction, and then the mixture was further incubated at 23° C. for 60 minutes. Fluorescence intensity was measured at wavelengths of 665 nm and 620 nm with a microplate reader, and the enzymatic activity was calculated as the ratio of fluorescence intensities at 665 nm and 620 nm (665 nm/620 nm).
Chain of human IRAK-4 (Q9NWZ3 whole entry): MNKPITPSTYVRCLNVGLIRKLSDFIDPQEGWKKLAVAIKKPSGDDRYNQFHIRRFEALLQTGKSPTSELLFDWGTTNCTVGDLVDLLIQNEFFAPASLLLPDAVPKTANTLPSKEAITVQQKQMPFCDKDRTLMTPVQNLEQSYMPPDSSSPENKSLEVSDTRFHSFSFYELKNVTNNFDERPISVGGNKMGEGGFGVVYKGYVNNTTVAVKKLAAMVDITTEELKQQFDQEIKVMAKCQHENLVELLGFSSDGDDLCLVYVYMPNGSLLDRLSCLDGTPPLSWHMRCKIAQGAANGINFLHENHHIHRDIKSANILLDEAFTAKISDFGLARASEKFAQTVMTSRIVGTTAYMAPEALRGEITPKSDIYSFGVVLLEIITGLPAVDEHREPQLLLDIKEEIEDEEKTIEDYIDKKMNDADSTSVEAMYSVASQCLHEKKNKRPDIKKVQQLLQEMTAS
When the measurement was performed in multiplicate, the results are represented with average values.
A general note: In TR-FRET formats the signal depends on donor and acceptor labels being close together.

Assay [1] deals with human acute monocytic leukemia cell strain THP-1. The assay is described as follows: LPS-stimulated TNFα production inhibition test using THP-1 cells. The note with it: LPS 2.5 ng/mL, TNFα by HTRF. The format is cell-based. Here is the method: By the THP-1 assay, influence of a test compound on the TNFα production induced by LPS stimulation can be evaluated. The THP-1 cells (ATCC, Cat. TIB-202) were inoculated on a 96-well plate at a density of 1 × 10^5 cells/160 µL/well, a test compound was added in a volume of 20 µL, and the plate was incubated at 37° C. for 1 hour in a 5% CO2 incubator. Then, LPS in a volume of 20 µL (final concentration 2.5 ng/mL, Sigma, Cat. L2630) was added, and the plate was further incubated for 4 hours. After the incubation, the plate was centrifuged, and 100 µL of the supernatant was taken from each well, and used for evaluation of the amount of TNFα using HTRF (Cisbio, Cat. 62TNFPEB). In the measurement of the amount of TNFα, the supernatant was diluted twice with the medium, and then added to wells of a 384-well plate in a volume of 10 µL, then anti-TNFα-cryptate (5 µL), and anti-TNFα-XL665 (5 µL) were added, and the plate was left standing overnight. The fluorescence intensity ratio for the wavelengths of 620 and 665 nm (620 nm/665 nm) was measured with a microplate reader, and the amount of TNFα in the supernatant was calculated by using a calibration curve. The TNFα production suppression ratio observed with no addition of LPS was defined to be 100%, the TNFα production suppression ratio observed with no addition of the test compound was defined to be 0%, and IC50 of the test compound was calculated by using the 4-parameter logistic model of the data analysis software XLfit (ID Business Solutions Ltd.).
When the measurement was performed in multiplicate, the results are represented with average values. The values were rounded to the fourth decimal place.

The structures appear in SMILES notation.

For the compound `Cc1ncc(-c2ccc3ncc4cc3c2/C=C/CCNC(=O)[C@@H]2CC(CC(C)N2C)N4)cn1` (stereo in doubt) [a-02-17, (3^2S,E)-3^1,3^6-Dimethyl-1^6-(2-methylpyrimidin-S-yl)-2,5-diaza-1 (3,5)-qunolina-3(4,2)-piperidinacyclononaphan-8-en-4-one], the IC50 against human IRAK-4 came to 1.76 nM; in assay [1] (Homo sapiens, THP-1, 4 h), 0.066 µM.

Regarding `CN1CC[C@H]2C[C@H]1C(=O)NCCCOc1c(-c3ccns3)ccc3ncc(nc13)N2` [a-01-01], the IC50 against human IRAK-4 was determined as 1.63 nM; in assay [1] (Homo sapiens, THP-1, 4 h), 0.028 µM. The corresponding values for `CN1CC[C@H]2C[C@H]1C(=O)NCC1(CC1)COc1c(-c3cnc(CO)s3)ccc3ncc(nc13)N2` [a-01-02] are 0.89 nM and 0.044 µM. Regarding `CN1CC[C@H]2C[C@H]1C(=O)NCC1(CC1)COc1c(-c3cncnc3)ccc3ncc(nc13)N2` [a-01-03], the IC50 at human IRAK-4 came out at 2.11 nM; in assay [1] (Homo sapiens, THP-1, 4 h), 0.045 µM. On the same counts, the results for `CCCOCc1ncc(-c2ccc3ncc4nc3c2OCC2(CC2)CNC(=O)[C@@H]2C[C@H](CCN2C)N4)cn1` [a-01-04] are 4.24 nM and 0.048 µM.

As to `CCCOCc1ncc(-c2ccc3ncc4nc3c2OCC(F)CNC(=O)[C@@H]2C[C@H](CCN2C)N4)cn1` (stereo partly drawn) [a-01-05], the values for the IC50 (against human IRAK-4; in assay [1] (4 hours)) were 1.37 nM and 0.048 µM, respectively. On to `CCCOCc1ncc(-c2ccc3ncc4nc3c2OCC(F)COC(=O)[C@@H]2C[C@H](CCN2C)N4)cn1` (stereo partly drawn) [a-01-06], for which the IC50 against human IRAK-4 is 2.53 nM; in assay [1] (Homo sapiens, THP-1, 4 h), 0.05 µM. On the same counts, the results for `CCCOCc1ncc(-c2ccc3ncc4nc3c2OCCCNC(=O)[C@@H]2C[C@H](CCN2C)N4)cn1` [a-01-07, (3^2S,3^4S)-3^1-Methyl-1^7-(2-(propoxymethyl)pyrimidin-5-yl)-9-oxa-2,5-diaza-1(2,8)-quinoxalina-3(4,2)-piperidinacyclononaphan-4-one] are 1.49 nM and 0.057 µM.

Consider `CN1CC[C@H]2C[C@H]1C(=O)NCC(F)(F)COc1c(-c3cncnc3)ccc3ncc(nc13)N2` [a-01-08], for which the IC50 is 1.47 nM on human IRAK-4 and 0.063 µM in assay [1] (Homo sapiens, THP-1, 4 h).

Regarding `CN1CC[C@H]2C[C@H]1C(=O)NCCCOc1c(-c3cncnc3)ccc3ncc(nc13)N2` [a-01-09], the IC50 at human IRAK-4 worked out at 1.28 nM; in assay [1] (Homo sapiens, THP-1, 4 h), 0.064 µM. For `CCCOCc1ncc(-c2ccc3ncc4nc3c2OCCCC2CCCN2C(=O)[C@@H]2C[C@H](CCN2C)N4)cn1` (stereo partly drawn) [a-01-10], the IC50 against human IRAK-4 is 43.4 nM; in assay [1] (Homo sapiens, THP-1, 4 h) it was 0.068 µM.

In the case of `CN1CC[C@H]2C[C@H]1C(=O)NCCCOc1c(-c3cnc(CO)s3)ccc3ncc(nc13)N2` [a-01-11], the IC50 turned out to be 0.79 nM against human IRAK-4 and 0.073 µM in assay [1] (Homo sapiens, THP-1, 4 h). For `CCCOCc1ncc(-c2ccc3ncc4nc3c2OCCC(C)CNC(=O)[C@@H]2C[C@H](CCN2C)N4)cn1` (stereo partly drawn) [a-01-12], the IC50 worked out at 1.75 nM against human IRAK-4 and 0.075 µM in assay [1] (Homo sapiens, THP-1, 4 h). The corresponding values for `CN1CC[C@H]2C[C@H]1C(=O)NCCCOc1c(-c3cnc(COC4CCC4)nc3)ccc3ncc(nc13)N2` [a-01-13] are 2.95 nM and 0.076 µM. The corresponding values for `CN1CC[C@H]2C[C@H]1C(=O)NCCCOc1c(-c3cnsc3)ccc3ncc(nc13)N2` [a-01-14] are 1.73 nM and 0.08 µM. The corresponding values for `CCCOCc1ncc(-c2ccc3ncc4nc3c2OCCCOC(=O)[C@@H]2C[C@H](CCN2C)N4)cn1` [a-01-15] are 2.77 nM and 0.081 µM. For `CCN1CC[C@H]2C[C@H]1C(=O)NCCCOc1c(-c3cnc(CO)s3)ccc3ncc(nc13)N2` [a-01-16], the IC50 turned out to be 1.25 nM against human IRAK-4 and 0.092 µM in assay [1] (Homo sapiens, THP-1, 4 h). The corresponding values for `CCC(O)COCc1ncc(-c2ccc3ncc4nc3c2OCCCNC(=O)[C@@H]2C[C@H](CCN2C)N4)cn1` (stereo partly drawn) [a-01-17] are 3.04 nM and 0.099 µM. Take `CN1CCCOc2c(-c3cnc(CO)s3)ccc3ncc(nc23)N[C@H]2CCN(C)[C@@H](C2)C1=O` [a-01-18]: the IC50 on human IRAK-4 was determined as 1.84 nM; in assay [1] (Homo sapiens, THP-1, 4 h), 0.104 µM. Turning to `Cc1ncc(-c2ccc3ncc4nc3c2OCC(F)CNC(=O)[C@@H]2C[C@H](CCN2C)N4)cn1` (stereo partly drawn) [a-01-19], the IC50 was 1.6 nM at human IRAK-4 and 0.113 µM in assay [1] (4 hours). Take `Cc1ncc(-c2ccc3ncc4nc3c2OCC(F)COC(=O)[C@@H]2C[C@H](CCN2C)N4)cn1` (stereo partly drawn) [a-01-20]: the IC50 against human IRAK-4 worked out at 1.15 nM; in assay [1] (Homo sapiens, THP-1, 4 h), 0.113 µM. With `CN1CC[C@H]2C[C@H]1C(=O)NCCCOc1c(-c3cnc(COCC4CC4)nc3)ccc3ncc(nc13)N2` [a-01-21], the IC50 was 2.29 nM against human IRAK-4 and 0.117 µM in assay [1] (Homo sapiens, THP-1, 4 h). Take `CN1CC[C@H]2C[C@H]1C(=O)NCC(F)(F)COc1c(-c3cnc(CO)s3)ccc3ncc(nc13)N2` [a-01-22]: the IC50 against human IRAK-4 came out at 0.89 nM; in assay [1] (Homo sapiens, THP-1, 4 h) it was 0.118 µM. The corresponding values for `CCCOCc1ncc(-c2ccc3ncc4nc3c2OCC(F)(F)CNC(=O)[C@@H]2C[C@H](CCN2C)N4)cn1` [a-01-23] are 1.21 nM and 0.124 µM. The corresponding values for `Cc1ncc(-c2ccc3ncc4nc3c2OCCCNC(=O)[C@@H]2C[C@H](CCN2C)N4)cn1` [a-01-24] are 2.48 nM and 0.14 µM. `Cc1ncc(-c2ccc3ncc4nc3c2OCC2(CC2)CNC(=O)[C@@H]2C[C@H](CCN2C)N4)cn1` [a-01-25]: the concentration for half-maximal inhibition (IC50) against human IRAK-4 turned out to be 4.43 nM; in assay [1] (Homo sapiens, THP-1, 4 h) it was 0.141 µM.

With `CCCOCc1ncc(-c2ccc3ncc4nc3c2OCC(F)CNC(=O)[C@@H]2C[C@H](CCN2C)N4)cn1` (stereo partly drawn) [a-01-26], the IC50 against human IRAK-4 is 1.41 nM; in assay [1] (4 hours), 0.142 µM.

As for `CCCOCc1ncc(-c2ccc3ncc4nc3c2OCCCCCNC(=O)[C@@H]2C[C@H](CCN2C)N4)cn1` [a-01-27], the IC50 is 4.25 nM against human IRAK-4 and 0.145 µM in assay [1] (Homo sapiens, THP-1, 4 h). The corresponding values for `Cc1ncc(-c2ccc3ncc4nc3c2OCC(F)(F)CNC(=O)[C@@H]2C[C@H](CCN2C)N4)cn1` [a-01-28] are 4.04 nM and 0.149 µM.

Regarding `CN1CC[C@H]2C[C@H]1C(=O)NCC1(CCC1)COc1c(-c3cncnc3)ccc3ncc(nc13)N2` [a-01-29], the IC50 came out at 4.14 nM against human IRAK-4 and 0.15 µM in assay [1] (Homo sapiens, THP-1, 4 h). As to `CN1CC[C@H]2C[C@H]1C(=O)NCCCCOc1c(-c3cncnc3)ccc3ncc(nc13)N2` [a-01-30], the IC50 at human IRAK-4 is 2.8 nM; in assay [1] (Homo sapiens, THP-1, 4 h), 0.162 µM. On the same counts, the results for `CCCOCc1ncc(-c2ccc3ncc4nc3c2OCCC(F)CNC(=O)[C@@H]2C[C@H](CCN2C)N4)cn1` (stereo partly drawn) [a-01-31] are 3.42 nM and 0.163 µM. In the case of `CN1CC[C@H]2C[C@H]1C(=O)NCCCOc1c(-c3cnc(CO)nc3)ccc3ncc(nc13)N2` [a-01-32], the IC50 against human IRAK-4 was determined as 1.59 nM; in assay [1] (Homo sapiens, THP-1, 4 h) it was 0.165 µM. The corresponding values for `Cc1ncc(-c2ccc3ncc4nc3c2OCC2(CC2)COC(=O)[C@@H]2C[C@H](CCN2C)N4)cn1` [a-01-33] are 4.79 nM and 0.17 µM. As to `CN1CCCOc2c(-c3cncnc3)ccc3ncc(nc23)N[C@H]2CCN(C)[C@@H](C2)C1=O` [a-01-34], the IC50 on human IRAK-4 was 4.19 nM; in assay [1] (Homo sapiens, THP-1, 4 h) it was 0.177 µM. On the same counts, the results for `CCCOCc1ncc(-c2ccc3ncc4nc3c2OCCCNC(=O)[C@@H]2C[C@H](CCN2CC)N4)cn1` [a-01-35] are 2.84 nM and 0.178 µM. `CCCOCc1ncc(-c2ccc3ncc4nc3c2OCCC(C)NC(=O)[C@@H]2C[C@H](CCN2C)N4)cn1` (stereo partly drawn) [a-01-43] yielded an IC50 in assay [1] (Homo sapiens, THP-1, 4 h) of 0.237 µM. Same read-out and setting: the same measure for `Cc1ncc(-c2ccc3ncc4cc3c2CCCCNC(=O)[C@@H]2C[C@H](CC(C)N2C)N4)cn1` (stereo partly drawn) [a-02-22]: 0.324 µM; for `CCCOCc1ncc(-c2ccc3ncc4cc3c2OCCCNC(=O)[C@@H]2C[C@H](CCN2C)O4)cn1` [a-02-25, (3^2S,3^4S)-3^1-Methyl-1^6-(2-(propoxymethyl)pyrimidin-5-yl)-2,9-dioxa-5-aza-1 (3,5)-qunolina-3 (4,2)-piperidinacyclononaphan-4-one]: 0.5 µM.
